Patent US8846698B2, “Pyrrolo[2,3-d]pyrimidine tropomysin-related kinase inhibitors” (Pfizer Limited, priority 2011, dated 2014)
Like-named read-outs stand apart in the source and are kept apart here.

Experiments:
TRKA [1] = target: T1, TRKA (Homo sapiens (Human), UniProt P04629); test: Isolated TRK enzyme assay (HTRF KinEASE-TK), TRKA; assay type: biochemical; details: isolated TRKA enzyme; read-out: TrkA enzyme potency
Target sequence in this assay (P04629 441-796): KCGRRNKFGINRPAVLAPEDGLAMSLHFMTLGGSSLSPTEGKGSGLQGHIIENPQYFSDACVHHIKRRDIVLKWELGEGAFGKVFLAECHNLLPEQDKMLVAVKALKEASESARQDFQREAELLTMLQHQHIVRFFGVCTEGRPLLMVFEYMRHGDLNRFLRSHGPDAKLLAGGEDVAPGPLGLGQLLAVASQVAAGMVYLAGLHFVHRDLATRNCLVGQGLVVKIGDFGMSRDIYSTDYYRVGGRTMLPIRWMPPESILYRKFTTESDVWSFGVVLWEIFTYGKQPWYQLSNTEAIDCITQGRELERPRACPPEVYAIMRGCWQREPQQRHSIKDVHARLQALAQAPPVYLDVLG

TRKB [2] = target: T2, TRKB (Homo sapiens (Human), UniProt Q16620); test: biochemical
T2 sequence (Q16620 32-822 limits assumed): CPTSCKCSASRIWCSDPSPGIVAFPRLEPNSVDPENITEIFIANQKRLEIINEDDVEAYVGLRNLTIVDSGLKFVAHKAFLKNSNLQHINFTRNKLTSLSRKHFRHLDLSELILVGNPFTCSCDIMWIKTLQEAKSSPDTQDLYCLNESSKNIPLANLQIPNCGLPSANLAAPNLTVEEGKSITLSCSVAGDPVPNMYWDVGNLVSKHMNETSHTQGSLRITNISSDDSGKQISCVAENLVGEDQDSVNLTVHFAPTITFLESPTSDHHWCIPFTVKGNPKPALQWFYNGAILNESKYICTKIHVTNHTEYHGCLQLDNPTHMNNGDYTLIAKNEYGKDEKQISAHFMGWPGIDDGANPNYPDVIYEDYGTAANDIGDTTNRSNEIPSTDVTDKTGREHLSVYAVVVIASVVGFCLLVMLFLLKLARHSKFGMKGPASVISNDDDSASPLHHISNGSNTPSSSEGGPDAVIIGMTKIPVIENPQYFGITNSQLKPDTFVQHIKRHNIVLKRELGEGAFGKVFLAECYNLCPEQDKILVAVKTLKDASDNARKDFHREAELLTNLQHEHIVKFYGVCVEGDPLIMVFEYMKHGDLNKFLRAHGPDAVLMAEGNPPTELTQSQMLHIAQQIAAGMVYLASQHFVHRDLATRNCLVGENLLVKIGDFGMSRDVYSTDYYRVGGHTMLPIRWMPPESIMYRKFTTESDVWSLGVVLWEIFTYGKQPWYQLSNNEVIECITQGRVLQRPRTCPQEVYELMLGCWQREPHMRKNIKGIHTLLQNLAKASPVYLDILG

TRKA [3] = target: T1, TRKA; test: Cell based DiscoveRx PathHunter antagonist assay, TRKA cell line; details: read-out: TrkA cell potency
Target sequence in this assay (P04629 33-796): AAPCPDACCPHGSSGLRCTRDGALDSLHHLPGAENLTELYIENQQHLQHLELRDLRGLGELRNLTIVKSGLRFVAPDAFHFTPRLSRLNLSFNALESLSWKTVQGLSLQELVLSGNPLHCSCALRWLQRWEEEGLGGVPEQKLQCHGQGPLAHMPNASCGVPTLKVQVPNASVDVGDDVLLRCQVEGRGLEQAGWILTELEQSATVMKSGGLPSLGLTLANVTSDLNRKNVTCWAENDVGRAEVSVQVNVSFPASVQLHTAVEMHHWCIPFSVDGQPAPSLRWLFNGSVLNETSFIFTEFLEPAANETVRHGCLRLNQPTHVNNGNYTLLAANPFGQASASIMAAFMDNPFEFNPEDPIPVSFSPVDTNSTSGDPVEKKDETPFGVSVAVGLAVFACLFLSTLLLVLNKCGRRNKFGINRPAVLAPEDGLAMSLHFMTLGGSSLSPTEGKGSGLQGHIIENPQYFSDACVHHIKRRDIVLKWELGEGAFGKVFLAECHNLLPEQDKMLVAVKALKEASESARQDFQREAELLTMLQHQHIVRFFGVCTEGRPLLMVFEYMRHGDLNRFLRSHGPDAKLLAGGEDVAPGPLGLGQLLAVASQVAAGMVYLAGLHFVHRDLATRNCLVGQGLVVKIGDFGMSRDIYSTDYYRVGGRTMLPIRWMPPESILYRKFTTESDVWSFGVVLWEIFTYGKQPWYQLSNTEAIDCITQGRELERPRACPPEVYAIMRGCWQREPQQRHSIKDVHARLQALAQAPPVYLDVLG

TRKB [4] = target: T2, TRKB; test: cell-based; details: TrkB cell potency, TRKB PathHunter cell line
TRKC = TRKC (Homo sapiens (Human), UniProt Q16288); test: Cell based DiscoveRx PathHunter antagonist assay, TRKC cell line; details: read-out: TrkC cell potency
Chain of TRKC (Q16288 32-839): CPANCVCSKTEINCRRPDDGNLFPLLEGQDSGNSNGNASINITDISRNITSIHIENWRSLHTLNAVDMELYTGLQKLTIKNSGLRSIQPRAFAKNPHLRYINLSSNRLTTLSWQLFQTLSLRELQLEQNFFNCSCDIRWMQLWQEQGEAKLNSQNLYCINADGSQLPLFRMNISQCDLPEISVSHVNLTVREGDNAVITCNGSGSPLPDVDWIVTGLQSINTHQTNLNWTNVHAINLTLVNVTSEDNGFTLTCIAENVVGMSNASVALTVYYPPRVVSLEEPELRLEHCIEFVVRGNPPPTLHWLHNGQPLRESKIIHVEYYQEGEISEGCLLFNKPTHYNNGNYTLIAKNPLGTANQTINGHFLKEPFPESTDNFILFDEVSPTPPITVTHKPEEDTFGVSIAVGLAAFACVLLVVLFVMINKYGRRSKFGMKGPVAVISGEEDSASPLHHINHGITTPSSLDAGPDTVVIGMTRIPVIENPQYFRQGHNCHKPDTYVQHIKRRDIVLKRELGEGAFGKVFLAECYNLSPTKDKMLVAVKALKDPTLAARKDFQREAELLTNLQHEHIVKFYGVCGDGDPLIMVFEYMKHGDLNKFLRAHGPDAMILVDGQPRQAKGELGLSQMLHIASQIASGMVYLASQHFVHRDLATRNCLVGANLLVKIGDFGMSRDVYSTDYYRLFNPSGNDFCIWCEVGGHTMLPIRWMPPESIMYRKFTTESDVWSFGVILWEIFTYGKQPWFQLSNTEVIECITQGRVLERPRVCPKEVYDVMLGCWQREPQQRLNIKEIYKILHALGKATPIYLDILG
Experimental: After the Detection Reagent addition, plates are covered and incubated at room temperature for 60 minutes. […] Test compound data are expressed as percentage inhibition defined by HPE and ZPE values for each plate. Percentage inhibition in the presence of test compound is plotted against compound concentration on a log scale to determine an IC50 from the resultant sigmoid curve. Cell Based Assays were carried out using Cell lines from DiscoveRx utilising their PathHunter technology and reagents in an antagonist assay:
The assays are based upon DiscoveRx's proprietary Enzyme Fragment Complementation (EFC) technology. In the case of the TRK cell lines, the enzyme acceptor (EA) protein is fused to a SH2 protein and the TRK receptor of interest has been tagged with a Prolink tag.
Upon neurotrophin binding, the TRK receptor becomes phosphorylated, and the tagged SH2 protein binds.
This means that the IC50 is a good measure of affinity and should be unaffected by concentration neurotrophin stimulant.
Cryopreserved PathHunter cells are used from either in-house produced batches or bulk batches bought directly from DiscoveRx. Cryopreserved cells are resuscitated, spun 1000 rpm for 4 min to remove freezing media, and resuspended in MEM+0.5% horse serum (both Invitrogen) to 5e^5 cells/ml. The cells are then plated using a Multidrop into Greiner white tissue culture treated plates at 20 ul/well and incubated for 24 h at 37° C., 5% CO2, high humidity. On the day of the assay, the cell plates are allowed to cool to room temperature for 30 min prior to the assay.
Plates containing 1 ul of serially diluted compound, standard and HPE/ZPE are diluted 1/66 in assay buffer (PBS minus Ca^2+, minus Mg^2+ with 0.05% pluronic F127) using a Wellmate. […] The plates are left at room temperature for a further 2 hours before addition of 10 ul of the DiscoveRx PathHunter detection reagent (made up by adding 1 part Galacton Star, 5 parts Emerald II and 19 parts Cell Assay Buffer as per the manufacturer's instructions).
After reagent addition, plates are covered and incubated at room temperature for 60 minutes. Luminescence signal is read using an Envision. Test compound data are expressed as percentage inhibition defined by HPE and ZPE values for each plate. Percentage inhibition in the presence of test compound is plotted against compound concentration on a log scale to determine an […] from the resultant sigmoid curve.

BCRP (ABCG2) = BCRP (ABCG2) (Homo sapiens (Human), UniProt Q9UNQ0); test: MDCK-BCRP efflux assay (in vitro brain penetration); assay type: in vitro ADME; details: dog; for Papp A→B: A to B, read-out: RRCK BCRP Papp AB; for Papp B→A: B to A, read-out: RRCK BCRP Papp BA
Chain of BCRP (ABCG2) (Q9UNQ0 whole entry): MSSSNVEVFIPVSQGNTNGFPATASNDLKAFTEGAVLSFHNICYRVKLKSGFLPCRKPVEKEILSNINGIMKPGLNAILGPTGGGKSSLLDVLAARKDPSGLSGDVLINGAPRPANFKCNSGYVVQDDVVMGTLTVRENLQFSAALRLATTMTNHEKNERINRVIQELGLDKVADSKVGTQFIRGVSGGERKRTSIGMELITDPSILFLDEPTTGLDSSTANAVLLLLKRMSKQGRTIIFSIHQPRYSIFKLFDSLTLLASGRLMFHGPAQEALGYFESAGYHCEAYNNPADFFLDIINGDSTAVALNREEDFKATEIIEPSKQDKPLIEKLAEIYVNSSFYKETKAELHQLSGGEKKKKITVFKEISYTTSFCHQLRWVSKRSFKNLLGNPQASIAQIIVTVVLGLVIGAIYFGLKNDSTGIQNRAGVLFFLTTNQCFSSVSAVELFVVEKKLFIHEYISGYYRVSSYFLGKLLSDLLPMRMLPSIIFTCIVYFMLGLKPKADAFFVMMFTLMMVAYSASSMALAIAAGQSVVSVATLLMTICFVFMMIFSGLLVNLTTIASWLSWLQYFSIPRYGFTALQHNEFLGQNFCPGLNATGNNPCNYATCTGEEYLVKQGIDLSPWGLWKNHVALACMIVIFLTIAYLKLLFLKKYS

MDR1 = MDR1 (Homo sapiens (Human), UniProt P08183); test: MDCK-MDR1 assay (in vitro brain penetration); assay type: in vitro ADME; details: human; for Papp A→B: MDCK-MDR1, A to B, read-out: MDCK MDR1 Papp AB; for Papp B→A: read-out: MDCK MDR1 Papp BA
Chain of MDR1 (P08183 whole entry): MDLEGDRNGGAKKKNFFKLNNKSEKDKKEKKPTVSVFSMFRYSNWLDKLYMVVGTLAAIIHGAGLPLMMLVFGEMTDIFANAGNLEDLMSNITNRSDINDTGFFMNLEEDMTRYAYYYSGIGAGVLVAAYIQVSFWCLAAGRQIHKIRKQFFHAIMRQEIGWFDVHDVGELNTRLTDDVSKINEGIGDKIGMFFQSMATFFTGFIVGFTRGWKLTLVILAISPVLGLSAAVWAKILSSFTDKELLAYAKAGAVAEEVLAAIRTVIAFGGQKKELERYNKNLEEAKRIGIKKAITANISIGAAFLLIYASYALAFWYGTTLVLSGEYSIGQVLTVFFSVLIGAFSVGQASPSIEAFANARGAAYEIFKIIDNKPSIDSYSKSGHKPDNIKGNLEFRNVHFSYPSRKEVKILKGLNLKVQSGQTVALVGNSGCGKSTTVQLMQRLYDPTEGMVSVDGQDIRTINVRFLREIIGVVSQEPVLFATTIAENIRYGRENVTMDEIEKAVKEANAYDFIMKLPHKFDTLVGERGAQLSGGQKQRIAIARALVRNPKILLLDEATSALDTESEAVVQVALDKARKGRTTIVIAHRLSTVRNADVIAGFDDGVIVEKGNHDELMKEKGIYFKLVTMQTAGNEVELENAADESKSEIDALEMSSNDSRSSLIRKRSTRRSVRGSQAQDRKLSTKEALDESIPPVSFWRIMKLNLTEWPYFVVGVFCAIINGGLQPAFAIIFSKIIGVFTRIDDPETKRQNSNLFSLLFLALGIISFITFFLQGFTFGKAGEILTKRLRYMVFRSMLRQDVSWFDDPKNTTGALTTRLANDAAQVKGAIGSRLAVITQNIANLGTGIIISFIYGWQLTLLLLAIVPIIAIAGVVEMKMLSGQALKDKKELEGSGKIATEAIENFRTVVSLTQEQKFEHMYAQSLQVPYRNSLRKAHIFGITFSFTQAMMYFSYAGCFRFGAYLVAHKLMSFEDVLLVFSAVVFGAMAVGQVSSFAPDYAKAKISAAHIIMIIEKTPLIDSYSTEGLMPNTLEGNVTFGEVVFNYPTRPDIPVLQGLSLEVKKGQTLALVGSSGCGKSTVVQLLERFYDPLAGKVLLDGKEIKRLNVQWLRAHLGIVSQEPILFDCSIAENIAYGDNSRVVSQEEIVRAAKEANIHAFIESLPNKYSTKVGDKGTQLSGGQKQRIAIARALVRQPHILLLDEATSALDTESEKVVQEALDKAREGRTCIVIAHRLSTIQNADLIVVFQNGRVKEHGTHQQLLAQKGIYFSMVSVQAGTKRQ
From the text: MDCK-MDR1: MDCK-MDR1 data were collected according to the method described in “Are MDCK Cells Transfected with the Human MDR1 Gene a Good Model of the Human Intestinal Mucosa?”
http://www.springerlink.com/content/qfhqlqbr4fnp3 khf/fulltext.pdf

[5] = isolated TRKB enzyme, read-out: TrkB enzyme potency

Row | Structure (SMILES) | IC50 (TRKA [1]) [nM] | IC50 (TRKB [2]; TrkB enzyme potency) [nM] | IC50 (TRKA [3]) [nM] | IC50 (TRKB [4]) [nM] | IC50 (TRKC) [nM] | Papp A→B (BCRP (ABCG2)) [×10⁻⁶ cm/s] | Papp B→A (BCRP (ABCG2)) [×10⁻⁶ cm/s] | Papp A→B (MDR1) [×10⁻⁶ cm/s] | Papp B→A (MDR1; MDCK-MDR1, B to A) [×10⁻⁶ cm/s] | IC50 (TRKB [2]; [5]) [nM] | Papp B→A (MDR1; MDCK-MDR1, MDCK-MDR1, B to A) [×10⁻⁶ cm/s]
1 | CC(C)(C)n1cc(C(=O)c2cncc(NC(=O)Cn3cc(C4CC4)nn3)c2)c2cncnc21 [Example 4, N-{5-[(7-tert-butyl-7H-pyrrolo[2,3-d]pyrimidin-5-yl)carbonyl]pyridin-3-yl}-2-(4-cyclopropyl-1H-1,2,3-triazol-1-yl)acetamide] | 3.9 | 162 | 5.7 | 6.5 | 4.4 | 12 | 39 | < 1 | 13 | – | –
2 | C[C@@H](CO)n1cc(C(=O)c2cncc(NC(=O)Cc3ccc(C(F)(F)F)cc3)c2)c2cncnc21 [Example 9, N-[5-({7-[(1S)-2-Hydroxy-1-methylethyl]-7H-pyrrolo[2,3-d]pyrimidin-5-yl}carbonyl)pyridin-3-yl]-2-[4-(trifluoromethyl)phenyl]acetamide] | 3.7 | – | 13 | 6.6 | 5.9 | 9 | 43 | < 1 | – | 94 | 20
3 | Cc1cc(C(F)(F)F)nn1CC(=O)Nc1cncc(C(=O)c2cn(C(C)(C)CO)c3ncncc23)c1 [Example 26, N-(5-{[7-(2-hydroxy-1,1-dimethylethyl)-7H-pyrrolo[2,3-d]pyrimidin-5-yl]carbonyl}pyridin-3-yl)-2-[5-methyl-3-(trifluoromethyl)-1H-pyrazol-1-yl]acetamide] | 3.5 | 30 | 14 | 5.9 | 8.6 | 7.5 | 32 | < 1 | 16 | – | –
4 | CC(C)(CO)n1cc(C(=O)c2cncc(NC(=O)Cc3ccc(Cl)cn3)c2)c2cnc(N)nc21 [Example 46, N-(5-{[2-Amino-7-(2-hydroxy-1,1-dimethylethyl)-7H-pyrrolo[2,3-d]pyrimidin-5-yl]carbonyl}pyridin-3-yl)-2-(5-chloropyridin-2-yl)acetamide] | – | – | – | – | – | 7 | 31 | < 1 | – | – | 18
5 | CC(C)(CO)n1cc(C(=O)c2cncc(NC(=O)Cc3ccc(F)cn3)c2)c2cnc(N)nc21 [Example 51, N-(5-{[2-amino-7-(2-hydroxy-1,1-dimethylethyl)-7H-pyrrolo[2,3-d]pyrimidin-5-yl]carbonyl}pyridin-3-yl)-2-(5-fluoropyridin-2-yl)acetamide] | 7.8 | – | 35 | 7.5 | 9.9 | – | – | < 1 | – | 198 | 11
6 | CC(C)(CO)n1cc(C(=O)c2cncc(NC(=O)Cn3ccc(C(F)(F)F)n3)c2)c2cnc(N)nc21 [Example 52, N-(5-{[2-amino-7-(2-hydroxy-1,1-dimethylethyl)-7H-pyrrolo[2,3-d]pyrimidin-5-yl]carbonyl}pyridin-3-yl)-2-[3-(trifluoromethyl)-1H-pyrazol-1-yl]acetamide] | 3.1 | 103 | 22 | 16 | 8.1 | – | – | < 1 | 9.1 | – | –
7 | CC(C)(CO)n1cc(C(=O)c2cncc(NC(=O)Cn3ccc(C4CC4)n3)c2)c2cnc(N)nc21 [Example 53, N-(5-{[2-amino-7-(2-hydroxy-1,1-dimethylethyl)-7H-pyrrolo[2,3-d]pyrimidin-5-yl]carbonyl}pyridin-3-yl)-2-(3-cyclopropyl-1H-pyrazol-1-yl)acetamide] | 4 | 163 | 16 | 5 | 8.6 | – | – | < 1 | 13 | – | –
